EC50 data for 16 molecules are collected here from patent publication US20080021030A1, “Substituted Pyrazoles As Ppar Agonists” (priority 2003, published 2008).

Common to all, as to test: Transient transfection (transactivation) assay in CV-1 cells, GAL4-PPAR LBD chimera, SPAP reporter
Common to all, as to assay type: cell-based

Experiment [1] addresses T1, hPPAR alpha (Homo sapiens, UniProt Q07869).
T1 construct: expressed in transfected cells; host or cells: CV-1 cells
T1 sequence (Q07869 239-466 limits assumed): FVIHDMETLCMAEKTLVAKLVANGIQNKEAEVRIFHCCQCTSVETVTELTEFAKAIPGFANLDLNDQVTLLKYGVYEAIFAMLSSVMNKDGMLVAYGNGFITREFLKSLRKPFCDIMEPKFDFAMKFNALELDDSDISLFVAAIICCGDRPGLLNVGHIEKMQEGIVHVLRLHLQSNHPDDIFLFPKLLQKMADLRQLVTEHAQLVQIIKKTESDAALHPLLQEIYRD
Particulars: read-out: EC50 μM HPPARα. An excerpt: (§1) Compounds were screened for functional potency in transient transfection assays in CV-1 cells for their ability to activate the PPAR subtypes (transactivation assay). A previously established chimeric receptor system was utilized to allow comparison of the relative transcriptional activity of the receptor subtypes on the same target gene and to prevent endogenous receptor activation from complicating the interpretation of results. See, for example, Lehmann, J. M.; Moore, L. B.; Smith-Oliver, T. A.; Wilkison, W. O.; Willson, T. M.; Kliewer, S. A., An antidiabetic thiazolidinedione is a high affinity ligand for peroxisome proliferator-activated receptor gamma (PPARgamma), J. Biol. Chem., 270, 12953-6 (1995). The ligand binding domains for murine and human PPAR alpha, PPAR gamma, and PPAR delta were each fused to the yeast transcription factor GAL4 DNA binding domain. CV-1 cells were transiently transfected with expression vectors for the respective PPAR chimera along with a reporter construct containing five copies of the GAL4 DNA binding site driving expression of secreted placental alkaline phosphatase (SPAP) and beta-galactosidase. After 16 h, the medium was exchanged to DME medium supplemented with 10% delipidated fetal calf serum and the test compound at the appropriate concentration. After an additional 24 h, cell extracts were prepared and assayed for alkaline phosphatase and β-galactosidase activity. Alkaline phosphatase activity was corrected for transfection efficiency using the beta-galactosidase activity as an internal standard (see, for example, Kliewer, S. A., et. al. Cell 83, 813-819 (1995)). Rosiglitazone (BRL 49653) was used as a positive control in the hPPAR gamma assay. The positive control in the hPPAR alpha assays was 2-4-[2-(3-[4-fluorophenyl]-1-heptylureido)ethyl]-phenoxy-(2-methyl propionic acid (WO 97/36579). The positive control for PPAR delta assays was 2-{2-methyl-4-[({4-methyl-2-{trifluoromethyl)phenyl]-1,3-thiazol-5-yl}methyl)sulfanyl]phenoxy}acetic acid (WO 01/00603). The positive control was (5-{4-[2-(Methyl-pyridin-2-yl-amino)-ethoxy]-benzyl}-thiazolidine-2,4-dione (J. Med. Chem. 1994, 37(23), 3977), for PPAR gamma.
(§2) Activities in three hPPAR subtypes are reported in the table and are expressed in micromolar.

Experiment [2] has as its target T2, hPPAR delta (Homo sapiens, UniProt Q03181).
T2 construct: expressed in transfected cells; host or cells: CV-1 cells
T2 sequence (Q03181 211-439 limits assumed): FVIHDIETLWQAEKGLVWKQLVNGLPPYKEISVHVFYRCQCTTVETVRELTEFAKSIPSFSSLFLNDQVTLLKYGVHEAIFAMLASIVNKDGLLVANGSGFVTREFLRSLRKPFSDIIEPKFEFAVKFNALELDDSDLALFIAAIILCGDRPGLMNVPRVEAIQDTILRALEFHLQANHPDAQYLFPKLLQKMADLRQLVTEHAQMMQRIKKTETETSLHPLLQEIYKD
Particulars: read-out: EC50 μM HPPARδ.
Description: as §1, §2

The target of experiment [3] is T3, hPPAR gamma (Homo sapiens, UniProt P37231).
T3 construct: expressed in transfected cells; host or cells: CV-1 cells
T3 sequence (P37231 238-503 limits assumed): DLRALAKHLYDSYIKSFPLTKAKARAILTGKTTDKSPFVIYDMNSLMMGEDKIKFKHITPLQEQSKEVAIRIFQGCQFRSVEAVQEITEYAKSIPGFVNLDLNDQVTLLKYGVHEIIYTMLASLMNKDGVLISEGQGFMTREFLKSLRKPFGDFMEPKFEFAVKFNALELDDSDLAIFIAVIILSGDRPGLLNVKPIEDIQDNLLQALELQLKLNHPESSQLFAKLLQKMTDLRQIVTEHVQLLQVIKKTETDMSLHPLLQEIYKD
Particulars: read-out: EC50 μM HPPARγ. An excerpt:
Compounds were screened for functional potency in transient transfection assays in CV-1 cells for their ability to activate the PPAR subtypes (transactivation assay). A previously established chimeric receptor system was utilized to allow comparison of the relative transcriptional activity of the receptor subtypes on the same target gene and to prevent endogenous receptor activation from complicating the interpretation of results. […] The ligand binding domains for murine and human PPAR alpha, PPAR gamma, and PPAR delta were each fused to the yeast transcription factor GAL4 DNA binding domain. CV-1 cells were transiently transfected with expression vectors for the respective PPAR chimera along with a reporter construct containing five copies of the GAL4 DNA binding site driving expression of secreted placental alkaline phosphatase (SPAP) and beta-galactosidase. After 16 h, the medium was exchanged to DME medium supplemented with 10% delipidated fetal calf serum and the test compound at the appropriate concentration. After an additional 24 h, cell extracts were prepared and assayed for alkaline phosphatase and β-galactosidase activity.

Structures are written as SMILES. Structures can show the parent of a compound that is named as a salt. A value given as a limit tells only on which side of the number the result lay.

Turning to `Cc1cc(CNC(=O)c2cc(-c3cccc(N4CCCC4)c3)nn2C)ccc1OC(C)(C)C(=O)O` [Example 23, 2-methyl-2-[(2-methyl-4-{[({1-methyl-3-[3-(1-pyrrolidinyl)phenyl]-1H-pyrazol 5-yl}carbonyl)amino]methyl}phenyl)oxy]propanoic acid], the results for the EC50 in experiment [1], in experiment [2] and in experiment [3] were 0.067 µM, 4.33 µM and 0.779 µM, respectively.

For `Cc1cc(CNC(=O)c2cc(-c3ccc(C(C)(C)C)cc3)n(C)n2)cc(C)c1OC(C)(C)C(=O)O` [Example 25, 2-{4-[({[5-(4-tert-butylphenyl)-1-methyl-1H-pyrazol-3-yl]carbonyl}amino)methyl]-2,6-dimethylphenoxy}-2-methylpropanoic acid], the concentration giving a half-maximal response (EC50) was 0.002 µM in experiment [1], above 25 µM in experiment [2] and 0.008 µM in experiment [3].

Take `CCCCc1ccc(-c2cc(C(=O)NCc3ccc(OC(C)(C)C(=O)O)c(C)c3)nn2C)cc1` [Example 29, 2-((4-[({[5-(4-butylphenyl)-1-methyl-1H-pyrazol-3-yl]carbonyl}amino)methyl]-2-methylphenyl}oxy)-2-methylpropanoic acid]: the EC50 is 0.029 µM in experiment [1], above 25 µM in experiment [2] and 0.014 µM in experiment [3].

As to `Cc1cc(CNC(=O)c2cc(-c3ccc(-c4ccccc4C)cc3)n(C)n2)ccc1OC(C)(C)C(=O)O` [Example 31, 2-methyl-2-(2-methyl-4-[({[1-methyl-5-(2′-methylbiphenyl-4-yl)-1H-pyrazol-3-yl]carbonyl}amino)methyl]phenoxy}propanoic acid], the concentration for a half-maximal effect (EC50) in experiment [1] is 0.093 µM; in experiment [2], above 25 µM; in experiment [3] it was 0.026 µM.

Consider `Cc1cc(CNC(=O)c2cc(-c3ccc(N4CCOCC4)cc3)nn2C)ccc1OC(C)(C)C(=O)O` [Example 39, 2-methyl-2-[(2-methyl-4-{[({1-methyl-3-[4-(4-morpholinyl)phenyl]-1H-pyrazol-5-yl}carbonyl)amino]methyl}phenyl)oxy]propanoic acid], for which the figures for the EC50 in experiment [1], in experiment [2] and in experiment [3] were 1.06 µM, above 25 µM and 1.04 µM, respectively.

`Cc1cc(CNC(=O)c2cc(-c3cccc(N4CCCCC4)c3)n(C)n2)ccc1OC(C)(C)C(=O)O` [Example 40, 2-methyl-2-[(2-methyl-4-{[({1-methyl-5-[3-(1-piperidinyl)phenyl]-1H-pyrazol-3-yl}carbonyl)amino]methyl}phenyl)oxy]propanoic acid]: the EC50 worked out at 0.293 µM in experiment [1], 5.59 µM in experiment [2] and 0.187 µM in experiment [3].

With `Cc1cc(CNC(=O)c2cc(-c3cccc(N4CCCC4)c3)n(C)n2)ccc1OC(C)(C)C(=O)O` [Example 41, 2-methyl-2-[(2-methyl-4-{[({1-methyl-5-[3-(1-pyrrolidinyl)phenyl]-1H-pyrazol-3-yl}carbonyl)amino]methyl}phenyl)oxy]propanoic acid], the EC50 in experiment [1] was 0.504 µM; in experiment [2], above 25 µM; in experiment [3], 0.151 µM.

`Cc1cc(CNC(=O)c2cc(-c3cccc(N4CCCCC4)c3)nn2C)ccc1OC(C)(C)C(=O)O` [Example 42, 2-methyl-2-{2-methyl-4-[({[1-methyl-3-(3-piperidin-1-ylphenyl)-1H-pyrazol-5-yl]carbonyl}amino)methyl]phenoxy}propanoic acid]: the EC50 in experiment [1] is 0.293 µM; in experiment [2], above 25 µM; in experiment [3], 1.66 µM.

Turning to `Cc1cc(CNC(=O)Cc2cc(-c3ccc(C(C)(C)C)cc3)nn2C)ccc1OC(C)(C)C(=O)O` [Example 43, 2-[(4-{[({3-[4-(1,1-dimethylethyl)phenyl]-1-methyl-1H-pyrazol-5-yl}acetyl)amino]methyl}-2-methylphenyl)oxy]-2-methylpropanoic acid], the EC50 is 0.257 µM in experiment [1], above 25 µM in experiment [2] and 0.138 µM in experiment [3].

For the molecule `Cc1cc(CNC(=O)Cc2cc(-c3ccc(C(C)(C)C)cc3)n(C)n2)ccc1OC(C)(C)C(=O)O` [Example 44, 2-[(4-{[({5-[4-(1,1-dimethylethyl)phenyl]-1-methyl-1H-pyrazol-3-yl}acetyl)amino]methyl}-2-methylphenyl)oxy]-2-methylpropanoic acid], the results for the EC50 in experiment [1], in experiment [2] and in experiment [3] were 1.3 µM, above 25 µM and 0.006 µM, respectively.

For the molecule `Cc1cc(CNC(=O)c2cc(-c3ccc(N4CCCCC4)cc3)nn2C)ccc1OC(C)(C)C(=O)O` [Example 45], the values for the concentration giving a half-maximal response (EC50) in experiment [1], in experiment [2] and in experiment [3] were 0.836 µM, above 25 µM and 0.049 µM, respectively.

With `Cc1cc(CNC(=O)c2cc(Cc3ccc(C(C)(C)C)cc3)nn2C)ccc1OC(C)(C)C(=O)O` [Example 46, 2-{[4-({[(3-{[4-(1,1-dimethylethyl)phenyl]methyl}-1-methyl-1H-pyrazol-5-yl)carbonyl]amino}methyl)-2-methylphenyl]oxy}-2-methylpropanoic acid], the 50% effective concentration (EC50) in experiment [1] is 0.294 µM; in experiment [2], above 25 µM; in experiment [3] it was 0.353 µM.

With `C=CCn1nc(-c2ccc(C(C)(C)C)cc2)cc1C(=O)NCc1ccc(OC(C)(C)C(=O)O)c(C)c1` [Example 47, 2-({4-[({[3-[4-(1,1-dimethylethyl)phenyl]-1-(2-propen-1-yl)-1H-pyrazol-5-yl]carbonyl}amino)methyl]-2-methylphenyl}oxy)-2-methylpropanoic acid], the 50% effective concentration (EC50) in experiment [1] was 0.044 µM; in experiment [2], 1.15 µM; in experiment [3], 0.059 µM.

With `Cc1cc(CNC(=O)c2cc(-c3ccc(C(C)(C)C)cc3)n(Cc3ccccc3)n2)ccc1OC(C)(C)C(=O)O` [Example 50, 2-({4-[({[5-[4-(1,1-dimethylethyl)phenyl]-1-(phenylmethyl)-1H-pyrazol-3-yl]carbonyl}amino)methyl]-2-methylphenyl}oxy)-2-methylpropanoic acid], the EC50 in experiment [1] was 0.204 µM; in experiment [2] it was above 25 µM; in experiment [3], 1.7 µM.

`Cc1ccc(CNC(=O)c2cc(-c3ccc(C(C)(C)C)cc3)nn2CCc2ccccc2)cc1OC(C)(C)C(=O)O` [Example 51, 2-({5-[({[3-[4-(1,1-dimethylethyl)phenyl]-1-(2-phenylethyl)-1H-pyrazol-5-yl]carbonyl}amino)methyl]-2-methylphenyl}oxy)-2-methylpropanoic acid]: the concentration giving a half-maximal response (EC50) in experiment [1] is 0.3 µM; in experiment [2], above 25 µM; in experiment [3], 0.14 µM.

As to `Cc1cc(CNC(=O)c2cc(-c3ccc(C(C)(C)C)cc3)n(CCN3CCOCC3)n2)ccc1OC(C)(C)C(=O)O` [Example 54, 2-[(4-{[({5-[4-(1,1-dimethylethyl)phenyl]-1-[2-(4-morpholinyl)ethyl]-1H-pyrazol-3-yl}carbonyl)amino]methyl}-2-methylphenyl)oxy]-2-methyl propanoic acid hydrochloride], the values for the concentration for a half-maximal effect (EC50) in experiment [1], in experiment [2] and in experiment [3] were 0.571 µM, above 25 µM and above 25 µM, respectively.

As usually defined, the EC50 is the concentration needed to bring the measured effect to its halfway point.
